Tests used:
Type in all cases: biochemical
ErbB2 = biological target: T1, ErbB2 (Homo sapiens, UniProt P04626); assay: Kinase inhibition assay (33P transfer), ErbB2; details: read-out: ErbB2-2
T1 construct: Kinases are expressed as either kinase domains or full length constructs; made in house
Outline: (§1)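 Kinase domains or full-length enzymes, GST- or polyHis-tagged, were expressed in E. coli or baculovirus High Five cells and affinity-purified. Transfer of 33PO4 from ATP onto plate-bound poly(Glu,Tyr) 4:1 or poly(Arg,Ser) 3:1 was counted by liquid scintillation after a 0.5% phosphoric acid wash. IC50 = concentration halving incorporation.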

Lck = biological target: T2, Lck (Homo sapiens, UniProt P06239); assay: Kinase inhibition assay (33P transfer), Lck; details: Table 3, class symbols; read-out: Lck-1
T2 construct: Kinases are expressed as either kinase domains or full length constructs; made in house
Outline: (§2)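 Measured by scintillation: radiolabelled phosphate added by tagged recombinant kinases to poly(Glu,Tyr) 4:1 or poly(Arg,Ser) 3:1 attached to microtiter wells, counted once free label was washed away with 0.5% phosphoric acid.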

AKT = biological target: T3, AKT (Homo sapiens, UniProt Q9Y243); assay: Kinase inhibition assay (33P transfer), AKT; details: Table 2, class symbols A-E; read-out: AKT3-1
T3 construct: Kinases are expressed as either kinase domains or full length constructs; made in house
Outline: as §2

Itk = biological target: T4, Itk (Homo sapiens, UniProt Q08881); assay: Kinase inhibition assay (33P transfer), Itk; details: Table 3, class symbols; read-out: Itk-1
T4 construct: Kinases are expressed as either kinase domains or full length constructs; made in house
T4 sequence (Q08881 1-620): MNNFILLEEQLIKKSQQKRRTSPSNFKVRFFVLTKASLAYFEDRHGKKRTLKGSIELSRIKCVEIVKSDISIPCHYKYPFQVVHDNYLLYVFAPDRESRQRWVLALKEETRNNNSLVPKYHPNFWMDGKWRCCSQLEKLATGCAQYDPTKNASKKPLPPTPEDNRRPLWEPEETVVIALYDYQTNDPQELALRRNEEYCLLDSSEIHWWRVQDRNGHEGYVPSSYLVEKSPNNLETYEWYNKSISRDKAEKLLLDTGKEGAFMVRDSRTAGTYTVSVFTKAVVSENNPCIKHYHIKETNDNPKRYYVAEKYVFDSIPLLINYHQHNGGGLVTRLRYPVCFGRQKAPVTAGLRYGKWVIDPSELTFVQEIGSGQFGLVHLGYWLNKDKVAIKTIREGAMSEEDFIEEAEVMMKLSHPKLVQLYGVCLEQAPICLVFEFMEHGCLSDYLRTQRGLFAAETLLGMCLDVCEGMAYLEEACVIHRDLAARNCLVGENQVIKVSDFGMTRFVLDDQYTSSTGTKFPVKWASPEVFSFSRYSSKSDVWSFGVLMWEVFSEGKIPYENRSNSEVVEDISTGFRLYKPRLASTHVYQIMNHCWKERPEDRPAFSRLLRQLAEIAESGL
Outline: as §1

c-Met = biological target: T5, c-Met (Homo sapiens, UniProt P08581); assay: Kinase inhibition assay (33P transfer), c-Met; details: Table 2, class symbols A-E; read-out: Met-1
T5 construct: Kinases are expressed as either kinase domains or full length constructs; made in house
Outline: as §1

IGFR-1 = biological target: T6, IGFR-1 (Homo sapiens, UniProt P08069); assay: Kinase inhibition assay (33P transfer), IGFR-1; details: Table 2, class symbols A-E
T6 construct: Kinases are expressed as either kinase domains or full length constructs; made in house

EGFR = biological target: T7, EGFR (Homo sapiens, UniProt P00533); assay: Kinase inhibition assay (33P transfer), EGFR; details: Table 2, class symbols A-E; read-out: EGFR-1
T7 construct: Kinases are expressed as either kinase domains or full length constructs; made in house
Outline: as §1

PDGFRB = biological target: T8, PDGFRB (Homo sapiens, UniProt P09619); assay: Kinase inhibition assay (33P transfer), PDGFRB; details: read-out: PDGFRB-1
T8 construct: Kinases are expressed as either kinase domains or full length constructs; made in house

Kdr = biological target: T9, Kdr (Homo sapiens, UniProt P35968); assay: Kinase inhibition assay (33P transfer), Kdr; details: Table 3, class symbols; read-out: KDR-1
T9 construct: Kinases are expressed as either kinase domains or full length constructs; made in house
Outline: as §2

Zap-70 = biological target: T10, Zap-70 (Homo sapiens, UniProt P43403); assay: Kinase inhibition assay (33P transfer), Zap-70; details: Table 3, class symbols; read-out: Zap-1
T10 construct: Kinases are expressed as either kinase domains or full length constructs; made in house
T10 sequence (P43403 1-619): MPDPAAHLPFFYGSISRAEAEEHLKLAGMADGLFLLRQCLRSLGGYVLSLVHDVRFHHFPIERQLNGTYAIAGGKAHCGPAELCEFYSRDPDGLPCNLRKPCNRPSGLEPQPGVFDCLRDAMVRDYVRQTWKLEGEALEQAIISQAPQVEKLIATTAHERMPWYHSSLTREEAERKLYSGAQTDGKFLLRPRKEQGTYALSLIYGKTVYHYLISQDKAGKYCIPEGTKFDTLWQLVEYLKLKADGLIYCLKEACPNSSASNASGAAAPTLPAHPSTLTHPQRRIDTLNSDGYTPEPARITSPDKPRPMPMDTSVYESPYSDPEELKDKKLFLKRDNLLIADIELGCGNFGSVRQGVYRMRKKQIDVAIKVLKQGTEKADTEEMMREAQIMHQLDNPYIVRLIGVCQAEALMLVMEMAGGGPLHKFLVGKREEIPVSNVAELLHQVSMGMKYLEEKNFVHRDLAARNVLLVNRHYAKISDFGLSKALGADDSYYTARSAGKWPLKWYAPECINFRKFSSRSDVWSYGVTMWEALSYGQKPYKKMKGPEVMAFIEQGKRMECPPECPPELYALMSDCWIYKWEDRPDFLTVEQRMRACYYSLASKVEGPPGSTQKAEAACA
Outline: as §2

T3 sequence (Q9Y243 whole entry, the tested form may be a part): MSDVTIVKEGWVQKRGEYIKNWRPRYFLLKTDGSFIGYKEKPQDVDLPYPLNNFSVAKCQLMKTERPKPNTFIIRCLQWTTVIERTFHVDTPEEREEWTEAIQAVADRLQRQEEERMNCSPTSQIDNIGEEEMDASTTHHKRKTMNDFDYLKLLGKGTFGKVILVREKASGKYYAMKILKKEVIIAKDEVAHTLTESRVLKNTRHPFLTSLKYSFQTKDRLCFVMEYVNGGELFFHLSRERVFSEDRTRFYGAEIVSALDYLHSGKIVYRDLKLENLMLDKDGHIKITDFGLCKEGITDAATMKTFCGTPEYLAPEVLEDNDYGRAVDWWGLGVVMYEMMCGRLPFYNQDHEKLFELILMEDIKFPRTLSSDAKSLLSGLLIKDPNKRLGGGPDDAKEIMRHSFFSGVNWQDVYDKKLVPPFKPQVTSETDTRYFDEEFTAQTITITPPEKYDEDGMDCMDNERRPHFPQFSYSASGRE
T7 sequence (P00533 25-1210, species assumed): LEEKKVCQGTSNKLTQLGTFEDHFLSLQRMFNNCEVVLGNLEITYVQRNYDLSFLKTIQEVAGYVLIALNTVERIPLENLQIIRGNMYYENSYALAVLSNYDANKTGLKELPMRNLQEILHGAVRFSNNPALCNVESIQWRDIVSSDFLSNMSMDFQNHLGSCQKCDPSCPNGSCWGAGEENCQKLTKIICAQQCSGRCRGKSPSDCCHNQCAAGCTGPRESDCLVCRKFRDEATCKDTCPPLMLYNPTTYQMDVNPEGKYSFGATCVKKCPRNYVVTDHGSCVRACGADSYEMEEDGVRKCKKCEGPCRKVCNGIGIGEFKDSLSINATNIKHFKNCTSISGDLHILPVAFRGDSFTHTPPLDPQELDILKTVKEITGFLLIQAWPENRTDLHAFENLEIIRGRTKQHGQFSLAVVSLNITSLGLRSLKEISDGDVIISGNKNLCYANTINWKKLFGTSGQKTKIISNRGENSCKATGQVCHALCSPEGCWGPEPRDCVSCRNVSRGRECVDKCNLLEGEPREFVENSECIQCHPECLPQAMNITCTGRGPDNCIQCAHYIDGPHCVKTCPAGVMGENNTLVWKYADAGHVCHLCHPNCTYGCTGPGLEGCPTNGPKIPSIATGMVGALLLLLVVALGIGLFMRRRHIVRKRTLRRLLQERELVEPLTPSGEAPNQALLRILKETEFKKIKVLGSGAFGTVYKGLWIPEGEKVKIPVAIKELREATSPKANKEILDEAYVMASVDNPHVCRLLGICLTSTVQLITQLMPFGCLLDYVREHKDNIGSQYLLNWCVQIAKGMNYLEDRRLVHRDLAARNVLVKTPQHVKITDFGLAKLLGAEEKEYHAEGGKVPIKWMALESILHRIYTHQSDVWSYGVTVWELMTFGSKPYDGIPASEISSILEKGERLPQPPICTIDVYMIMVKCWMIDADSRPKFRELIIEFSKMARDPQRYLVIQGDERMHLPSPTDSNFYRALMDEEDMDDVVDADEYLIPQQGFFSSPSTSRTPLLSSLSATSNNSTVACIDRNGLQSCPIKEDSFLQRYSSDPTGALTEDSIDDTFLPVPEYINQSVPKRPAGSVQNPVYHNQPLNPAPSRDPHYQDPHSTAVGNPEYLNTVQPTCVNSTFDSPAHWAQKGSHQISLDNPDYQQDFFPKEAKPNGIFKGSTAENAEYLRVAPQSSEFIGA
T1 sequence (P04626 23-1255, species assumed): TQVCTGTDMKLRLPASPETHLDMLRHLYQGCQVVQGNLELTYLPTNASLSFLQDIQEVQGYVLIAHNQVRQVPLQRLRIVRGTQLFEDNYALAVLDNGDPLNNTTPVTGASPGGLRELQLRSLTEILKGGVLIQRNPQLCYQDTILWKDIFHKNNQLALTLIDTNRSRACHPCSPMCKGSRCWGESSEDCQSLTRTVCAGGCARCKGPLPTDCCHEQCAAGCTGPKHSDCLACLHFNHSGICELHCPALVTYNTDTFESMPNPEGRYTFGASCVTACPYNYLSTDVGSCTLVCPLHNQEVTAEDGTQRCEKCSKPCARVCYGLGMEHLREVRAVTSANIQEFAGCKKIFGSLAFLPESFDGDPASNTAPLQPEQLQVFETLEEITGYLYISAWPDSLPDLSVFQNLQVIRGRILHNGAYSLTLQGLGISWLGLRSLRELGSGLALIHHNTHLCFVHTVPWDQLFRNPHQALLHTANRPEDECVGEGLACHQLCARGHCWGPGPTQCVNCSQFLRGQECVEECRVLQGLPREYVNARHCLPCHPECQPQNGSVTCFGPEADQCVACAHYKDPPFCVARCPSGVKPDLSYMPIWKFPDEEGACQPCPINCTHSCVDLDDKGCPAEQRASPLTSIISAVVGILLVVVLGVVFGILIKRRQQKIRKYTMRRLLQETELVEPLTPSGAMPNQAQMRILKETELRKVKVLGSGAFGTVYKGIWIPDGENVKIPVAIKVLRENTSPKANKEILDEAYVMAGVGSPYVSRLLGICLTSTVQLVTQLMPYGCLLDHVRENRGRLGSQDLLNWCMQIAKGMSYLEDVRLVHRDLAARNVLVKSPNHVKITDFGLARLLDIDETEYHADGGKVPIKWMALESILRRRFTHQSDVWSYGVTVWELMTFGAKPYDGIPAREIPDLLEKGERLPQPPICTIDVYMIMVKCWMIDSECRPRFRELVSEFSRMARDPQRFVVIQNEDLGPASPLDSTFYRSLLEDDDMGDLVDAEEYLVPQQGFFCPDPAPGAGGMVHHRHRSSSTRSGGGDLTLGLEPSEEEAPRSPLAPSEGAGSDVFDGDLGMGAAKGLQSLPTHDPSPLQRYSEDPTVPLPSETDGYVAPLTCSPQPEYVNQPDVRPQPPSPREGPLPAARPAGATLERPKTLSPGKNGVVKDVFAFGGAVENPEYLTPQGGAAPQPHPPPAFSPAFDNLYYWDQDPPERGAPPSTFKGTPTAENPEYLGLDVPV
T8 sequence (P09619 33-1106, species assumed): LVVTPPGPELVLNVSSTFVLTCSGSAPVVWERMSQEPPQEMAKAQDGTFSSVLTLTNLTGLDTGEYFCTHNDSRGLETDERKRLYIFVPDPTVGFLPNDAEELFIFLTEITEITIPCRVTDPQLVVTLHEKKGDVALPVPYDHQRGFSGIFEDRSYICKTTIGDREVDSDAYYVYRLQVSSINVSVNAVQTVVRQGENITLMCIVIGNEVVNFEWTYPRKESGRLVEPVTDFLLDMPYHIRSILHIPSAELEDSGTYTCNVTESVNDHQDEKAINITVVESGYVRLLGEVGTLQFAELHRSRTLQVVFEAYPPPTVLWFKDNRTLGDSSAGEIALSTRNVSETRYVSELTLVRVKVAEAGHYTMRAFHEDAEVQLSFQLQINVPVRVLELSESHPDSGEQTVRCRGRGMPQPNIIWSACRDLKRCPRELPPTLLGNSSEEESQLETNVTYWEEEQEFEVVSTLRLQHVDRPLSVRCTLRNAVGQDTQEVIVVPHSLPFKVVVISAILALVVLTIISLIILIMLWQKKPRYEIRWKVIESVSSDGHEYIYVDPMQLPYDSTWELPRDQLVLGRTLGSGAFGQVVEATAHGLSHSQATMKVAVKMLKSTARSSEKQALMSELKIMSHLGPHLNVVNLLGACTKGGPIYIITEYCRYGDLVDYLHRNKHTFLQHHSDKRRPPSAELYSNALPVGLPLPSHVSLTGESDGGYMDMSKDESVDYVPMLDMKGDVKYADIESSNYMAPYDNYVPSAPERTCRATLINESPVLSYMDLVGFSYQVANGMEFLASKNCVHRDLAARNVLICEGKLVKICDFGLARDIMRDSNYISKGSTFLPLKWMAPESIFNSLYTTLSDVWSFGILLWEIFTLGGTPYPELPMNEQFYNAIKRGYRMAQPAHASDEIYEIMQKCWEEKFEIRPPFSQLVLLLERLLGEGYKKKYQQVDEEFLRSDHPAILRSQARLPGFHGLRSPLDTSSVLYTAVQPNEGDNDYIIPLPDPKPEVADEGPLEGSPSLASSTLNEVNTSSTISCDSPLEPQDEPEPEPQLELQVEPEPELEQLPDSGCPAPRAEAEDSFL
T2 sequence (P06239 whole entry, species assumed, the tested form may be a part): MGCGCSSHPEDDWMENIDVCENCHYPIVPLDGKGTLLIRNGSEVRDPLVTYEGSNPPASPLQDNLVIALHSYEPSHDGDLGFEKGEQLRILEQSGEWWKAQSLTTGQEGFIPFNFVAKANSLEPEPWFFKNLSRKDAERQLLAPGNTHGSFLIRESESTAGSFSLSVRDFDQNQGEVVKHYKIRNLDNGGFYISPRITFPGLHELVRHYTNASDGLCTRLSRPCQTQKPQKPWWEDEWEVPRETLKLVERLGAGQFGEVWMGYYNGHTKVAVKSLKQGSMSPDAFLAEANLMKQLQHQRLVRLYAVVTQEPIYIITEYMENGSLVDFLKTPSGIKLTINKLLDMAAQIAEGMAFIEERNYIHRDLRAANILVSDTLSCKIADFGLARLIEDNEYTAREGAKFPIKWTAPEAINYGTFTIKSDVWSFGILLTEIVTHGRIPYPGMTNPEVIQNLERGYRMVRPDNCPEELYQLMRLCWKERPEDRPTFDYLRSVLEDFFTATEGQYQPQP

SMILES | IC50 (ErbB2) [µM] | IC50 (Lck) [µM] | IC50 (AKT) [µM] | IC50 (Itk) [µM] | IC50 (c-Met) [µM] | IC50 (IGFR-1) [µM] | IC50 (EGFR) [µM] | IC50 (PDGFRB) [µM] | IC50 (Kdr) [µM] | IC50 (Zap-70) [µM]
COc1ccc(CCNc2ncnc(Nc3cc(-c4ccco4)[nH]n3)n2)cc1OC [Compound 823] | 5.89 to 8.59 | 8.59 to 11 | 0.982 to 5.89 | 0.982 to 5.89 | 0.982 to 5.89 | 5.89 to 8.59 | > 11 | 0.982 to 5.89 | 0.982 to 5.89 | 8.59 to 11
Fc1cccc(CNc2nc3ccccc3n2-c2ncnc(Nc3cccc(Cn4ccnn4)c3)n2)c1 [Compound 964] | 4.87 to 7.11 | 4.87 to 7.11 | > 9.14 | 7.11 to 9.14 | > 9.14 | > 9.14 | 0.812 to 4.87 | < 0.812 | < 0.812 | > 9.14
C#Cc1cccc(Nc2ncnc(Nc3cc(-c4ccccc4)n[nH]3)n2)c1 [Compound 1008] | > 12.7 | 1.13 to 6.79 | > 12.7 | 1.13 to 6.79 | 1.13 to 6.79 | < 1.13 | 1.13 to 6.79 | > 12.7 | 1.13 to 6.79 | > 12.7
COc1cc(Nc2ncnc(-c3cccnc3Nc3ccccc3)n2)ccc1NC(=O)CCCN1CCNCC1 [Compound 1093] | > 8.34 | 0.741 to 4.45 | > 8.34 | 4.45 to 6.49 | 0.741 to 4.45 | 6.49 to 8.34 | 0.741 to 4.45 | < 0.741 | < 0.741 | > 8.34
COc1cc(Nc2ncnc(-c3cccnc3Nc3ccc(C(C)=O)cc3)n2)cc(OC)c1OC [Compound 832] | > 9.52 | > 9.52 | > 9.52 | > 9.52 | 0.847 to 5.08 | > 9.52 | > 9.52 | > 9.52 | 0.847 to 5.08 | > 9.52
Fc1ccc(Nc2ncnc(Nc3ccc4c(cnn4Cc4ccccc4)c3)n2)cc1F [Compound 902] | 0.931 to 5.59 | > 10.5 | 0.931 to 5.59 | > 10.5 | 0.931 to 5.59 | 5.59 to 8.15 | < 0.931 | > 10.5 | > 10.5 | > 10.5
COc1cc(Nc2ncnc(Nc3ccc(OCCO)cc3)n2)cc(OC)c1OC [Compound 636] | 0.968 to 5.81 | < 0.968 | > 10.9 | > 10.9 | > 10.9 | > 10.9 | 0.968 to 5.81 | < 0.968 | < 0.968 | > 10.9
COc1cc(Nc2ncnc(-c3cccnc3NC3CCN(Cc4ccccc4)CC3)n2)cc(OC)c1OC [Compound 847] | > 8.53 | > 8.53 | > 8.53 | > 8.53 | > 8.53 | > 8.53 | > 8.53 | > 8.53 | > 8.53 | > 8.53
COCCNc1ncnc(Nc2cc(-c3ccc(C(=O)OC)cc3)n[nH]2)n1 [Compound 816] | 6.5 to 9.48 | > 12.2 | > 12.2 | 6.5 to 9.48 | > 12.2 | 9.48 to 12.2 | > 12.2 | < 1.08 | > 12.2 | > 12.2
CN(c1cccc(Cl)c1)c1ncnc(Nc2cccc(Cn3ccnn3)c2)n1 [Compound 678] | < 1.02 | 1.02 to 6.11 | > 11.5 | 1.02 to 6.11 | < 1.02 | > 11.5 | < 1.02 | < 1.02 | 1.02 to 6.11 | > 11.5
COc1cc(Nc2ncnc(Nc3cc(Cl)c(NC(=O)c4ccccc4)cc3C)n2)cc(OC)c1OC [Compound 633] | 0.768 to 4.61 | 0.768 to 4.61 | > 8.64 | > 8.64 | > 8.64 | > 8.64 | 0.768 to 4.61 | 4.61 to 6.72 | 6.72 to 8.64 | > 8.64
Fc1ccc(CNc2ncccc2-c2ncnc(Nc3cccc(Cn4ccnn4)c3)n2)cc1 [Compound 1102] | > 9.92 | > 9.92 | > 9.92 | > 9.92 | > 9.92 | > 9.92 | 5.29 to 7.72 | < 0.882 | < 0.882 | 7.72 to 9.92
Cc1ccc2c(c1)CCCN2c1ncnc(Nc2cccc(Cc3nnn[nH]3)c2)n1 [Compound 635] | < 1 | 6.01 to 8.76 | > 11.3 | > 11.3 | < 1 | > 11.3 | < 1 | 1 to 6.01 | < 1 | 8.76 to 11.3
COc1cc(Nc2ncnc(-c3cccnc3Nc3ccccc3C)n2)cc(OC)c1OC [Compound 833] | > 10.1 | < 0.9 | > 10.1 | > 10.1 | > 10.1 | > 10.1 | > 10.1 | < 0.9 | < 0.9 | > 10.1
COc1ccc(Nc2ncnc(NCc3cccc(Cl)c3)n2)cc1OC [Compound 792] | 6.45 to 9.41 | 1.08 to 6.45 | > 12.1 | > 12.1 | > 12.1 | > 12.1 | 1.08 to 6.45 | > 12.1 | > 12.1 | > 12.1
COC(=O)c1ccc(-c2cc(Nc3ncnc(NCc4ccccc4F)n3)[nH]n2)cc1 [Compound 814] | > 10.7 | > 10.7 | > 10.7 | > 10.7 | > 10.7 | > 10.7 | > 10.7 | 0.954 to 5.72 | > 10.7 | > 10.7
COC(=O)c1ccc(-c2cc(Nc3ncnc(Nc4cccc(CCC(=O)O)c4)n3)[nH]n2)cc1 [Compound 992] | 0.871 to 5.22 | < 0.871 | 5.22 to 7.62 | 0.871 to 5.22 | < 0.871 | < 0.871 | 0.871 to 5.22 | 0.871 to 5.22 | 0.871 to 5.22 | 0.871 to 5.22
COc1ccc(Nc2ncnc(N(C)c3ccc(S(=O)(=O)O)cc3)n2)cc1OC [Compound 798] | > 10.8 | > 10.8 | > 10.8 | > 10.8 | 8.38 to 10.8 | > 10.8 | > 10.8 | 0.958 to 5.75 | 0.958 to 5.75 | > 10.8
CN(c1cccc(Cl)c1)c1ncnc(Nc2cccc(OC(F)(F)F)c2)n1 [Compound 875] | 1.01 to 6.06 | > 11.4 | > 11.4 | 8.84 to 11.4 | 6.06 to 8.84 | > 11.4 | < 1.01 | 1.01 to 6.06 | 6.06 to 8.84 | > 11.4
